{"source": "patent US11571444B2", "about": "“Enhancement of MSC immunomodulatory properties by treprostinil” (United Therapeutics Corporation, priority 2016, dated 2023)", "key": {"IL10 expression in MSC": {"test_system": "IL10 expression in MSC", "assay": "RNA analysis of anti-inflammatory cytokine IL10 in exposed MSC", "format": "cell-based, human", "settings": "48 hours", "protocol": "(§1) A single vial of human bone marrow-derived MSC was expanded and seeded using standard growth medium. At 95-99% confluency, cells were thoroughly washed with phosphate-buffered saline (PBS) and exposed to media containing treprostinil at doses ranging from 250 μg/mL to 0.004 μg/mL. After 48 hours of culture, cells were photographed and assessed for treatment-induced changes in morphology.\n(§2) Cells exposed to treprostinil ranging from 250 μg/mL-0.004 μg/mL as described in Example 1 were harvested. RNA of the cells was extracted and then analyzed for pro- and anti-inflammatory cytokines. Cytokines, or small proteins involved in both internal and secreted cell signaling, have been identified to play a role in the inflammatory pathogenesis of PAH (Groth et al., Respiratory Research, 15:47 (2014))."}, "IDO1 expression in MSC": {"test_system": "IDO1 expression in MSC", "assay": "RNA analysis of immunosuppressive factor IDO1 in exposed MSC", "format": "cell-based, human", "settings": "48 hours", "protocol": "as §1\n(§3) RNA from MSCs exposed to treprostinil of from 250 μg/mL to 0.004 μg/mL was re-analyzed for several other anti-inflammatory factors."}, "[1]": {"test_system": "human bone marrow-derived MSC", "assay": "MSC morphology after 48 hours exposure (cytotoxic effect)", "format": "cell-based", "settings": "48 hours of culture", "protocol": "as §1"}, "IL13 expression in MSC": {"test_system": "IL13 expression in MSC", "assay": "RNA analysis of anti-inflammatory cytokine IL13 in exposed MSC", "format": "cell-based, human", "settings": "48 hours", "protocol": "as §1, §2"}, "iNOS expression in MSC": {"test_system": "iNOS expression in MSC", "assay": "RNA analysis of immunosuppressive factor iNOS in exposed MSC", "format": "cell-based, human", "settings": "48 hours", "protocol": "as §1, §3"}, "TGFβ expression in MSC": {"test_system": "TGFβ expression in MSC", "assay": "RNA analysis of immunosuppressive factor TGFβ in exposed MSC", "format": "cell-based, human", "settings": "48 hours", "protocol": "as §1, §3"}, "TNFα expression in MSC": {"test_system": "TNFα expression in MSC", "assay": "RNA analysis of pro-inflammatory cytokine TNFα in exposed MSC", "format": "cell-based, human", "settings": "48 hours", "protocol": "as §1, §2"}, "HLA expression in MSC": {"test_system": "HLA expression in MSC", "assay": "RNA analysis of immunosuppressive factor HLA in exposed MSC", "format": "cell-based, human", "settings": "48 hours", "protocol": "as §1, §3"}}, "data": [{"smiles": "CCCCC[C@H](O)CC[C@@H]1[C@H]2Cc3cccc(OCC(=O)O)c3C[C@H]2C[C@H]1O", "note": "[treprostinil]", "values": [{"measurement": "increase of IL10 expression in MSC", "setting": "IL10 expression in MSC; 9.3 μg/mL", "result": 5.4, "unit": "fold"}, {"measurement": "IL10 signaling over control", "setting": "IL10 expression in MSC; increasing doses", "result": "increase"}, {"measurement": "IDO over unexposed control", "setting": "IDO1 expression in MSC; 9.3 μg/mL", "result": "increased"}, {"measurement": "IDO1 over control", "setting": "IDO1 expression in MSC; increasing doses", "result": "robust increase"}, {"measurement": "MSC morphology (cytotoxic effect)", "setting": "[1]; 83.3 μg/mL or lower", "result": "did not cause morphological changes associated with cell death"}, {"measurement": "MSC morphology (cytotoxic effect)", "setting": "[1]; 250 μg/mL", "result": "rounded up and detached"}, {"measurement": "IL13 over unexposed control", "setting": "IL13 expression in MSC; 9.3 μg/mL", "result": "increased"}, {"measurement": "increase of IL13 expression in MSC", "setting": "IL13 expression in MSC; 27.8 μg/mL", "result": 8.8, "unit": "fold"}, {"measurement": "IL13 signaling over control", "setting": "IL13 expression in MSC; increasing doses", "result": "increase"}, {"measurement": "iNOS over unexposed control", "setting": "iNOS expression in MSC; 9.3 μg/mL", "result": "increased"}, {"measurement": "iNOS over control", "setting": "iNOS expression in MSC; increasing doses", "result": "robust increase"}, {"measurement": "TGFβ over unexposed control", "setting": "TGFβ expression in MSC; 9.3 μg/mL", "result": "increased"}, {"measurement": "TGFβ over control", "setting": "TGFβ expression in MSC; increasing doses", "result": "robust increase"}, {"measurement": "lowering of TNFα expression compared to control", "setting": "TNFα expression in MSC; 0.3 μg/mL to 83.3 μg/mL", "result": "up to 4.7 fold"}, {"measurement": "TNFα over unexposed control", "setting": "TNFα expression in MSC; 9.3 μg/mL", "result": "decreased"}, {"measurement": "HLA over unexposed control", "setting": "HLA expression in MSC; 9.3 μg/mL", "result": "increased"}, {"measurement": "HLA over control", "setting": "HLA expression in MSC; increasing doses", "result": "robust increase"}]}]}
